Test results published in PubChem BioAssay (NCI).
Where “and” joins values, the source holds several entries; their conditions need not be identical. Identical values can stand only once.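 Growth conditions: 96-well plates. Treatment: test compound, 48 hours, 5 concentrations. Analysis: linear interpolation between bracketing concentrations; unreached endpoints set to highest concentration. At the GI50, growth is halved. TGI: concentration producing complete growth inhibition.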

How the values were obtained:
Assay in all cases: NCI-60 cell line screen, 48 h
[1] = system: NCI-H226 lung
[2] = system: OVCAR-3 ovarian
[3] = system: HOP-92 NSCLC
[4] = system: NCI-H522 lung
[5] = system: T-47D breast
[6] = system: ACHN renal
[7] = system: UACC-62 melanoma
[8] = system: EKVX NSCLC
[9] = system: HOP-62 NSCLC
[10] = system: NCI/ADR-RES ovarian
[11] = system: SF-295 CNS
[12] = system: 786-0 renal
[13] = system: A498 renal
[14] = system: SNB-19 CNS
[15] = system: BT-549 breast
[16] = system: DU-145 prostate
[17] = system: NCI-H23 lung
[18] = system: OVCAR-4 ovarian
[19] = system: K-562 leukemia
[20] = system: MDA-MB-231 breast
[21] = system: OVCAR-5 ovarian
[22] = system: SNB-75 CNS
[23] = system: SW-620 colon
[24] = system: IGROV1 ovarian
[25] = system: MOLT-4 leukemia
[26] = system: RXF 393 renal
[27] = system: A549 NSCLC
[28] = system: HL-60(TB) leukemia
[29] = system: CAKI-1 renal
[30] = system: MDA-MB-435

With `COC(=O)/C=C/c1cc(O)c2c(c1)C(C(=O)OC)C(c1ccc(O)c(O)c1)O2` (stereo unspecified) the GI50 [1] was 2.93 µM and 3.86 µM, the TGI [1] was 24.3 µM and > 100 µM and the GI50 [2] was < 0.0488 µM. For the same compound, the TGI [3] was > 55 µM and 9.3 µM, the GI50 [4] was 0.0286 µM and the TGI [4] was 3.45 µM and 0.379 µM. The GI50 [5] was 1.55 µM, the TGI [5] was 57.9 µM and the GI50 [6] was 0.183 µM and 0.0676 µM. For the same compound, the TGI [6] was 43.6 µM and > 82.3 µM, the GI50 [7] was 0.0678 µM and the TGI [7] was 4.56 µM and 27.9 µM. The GI50 [8] was 0.851 µM and 0.418 µM, the TGI [8] was 78.5 µM and > 100 µM and the GI50 [9] was 0.493 µM and 0.137 µM. The TGI [9] was > 72.4 µM and 46.5 µM, the GI50 [10] was 0.11 µM and 0.0614 µM and the TGI [10] was > 100 µM. The GI50 [11] was 0.344 µM and 0.143 µM, the TGI [11] was 15.4 µM and 9.85 µM and the GI50 [12] was 0.626 µM. For the same compound, the TGI [12] was > 56.3 µM, the GI50 [13] was 2.85 µM and 0.735 µM and the TGI [13] was 16.3 µM and 6.21 µM. The GI50 [14] was 0.131 µM and 0.0868 µM, the TGI [14] was > 100 µM and the GI50 [15] was 0.127 µM and 0.103 µM. For the same compound, the TGI [15] was 39.8 µM and 5.39 µM, the GI50 [16] was 0.372 µM and 0.053 µM and the TGI [16] was > 100 µM. For the same compound, the GI50 [17] was 0.134 µM and 0.075 µM, the TGI [17] was 54.7 µM and > 100 µM and the GI50 [18] was 0.34 µM and 0.353 µM. For the same compound, the TGI [18] was 62.2 µM and > 75.9 µM, the GI50 [19] was < 0.0419 µM and 0.0462 µM and the TGI [19] was > 100 µM. For the same compound, the GI50 [20] was 0.192 µM and 0.308 µM, the TGI [20] was 18.2 µM and 47.1 µM and the GI50 [21] was 4.28 µM and 2.95 µM. For the same compound, the TGI [21] was > 100 µM, the TGI [22] was > 49.7 µM and 64.2 µM and the GI50 [23] was 0.108 µM. The TGI [23] was > 100 µM, the GI50 [24] was 0.822 µM and 0.509 µM and the TGI [24] was 33.8 µM and > 79.5 µM. The GI50 [25] was 0.12 µM and 0.0553 µM, the TGI [25] was 25.3 µM and 27.8 µM and the GI50 [26] was 0.0472 µM. For the same compound, the TGI [26] was 86.4 µM and > 100 µM, the GI50 [27] was 4.95 µM and 1.11 µM and the TGI [27] was 61.9 µM and 23.7 µM. For the same compound, the GI50 [28] was 0.0845 µM and 0.0298 µM, the TGI [28] was 0.164 µM and 0.106 µM and the GI50 [29] was 0.644 µM and 0.393 µM. For the same compound, the TGI [29] was > 100 µM and the TGI [30] was 0.0513 µM.
